In the supplement of paper PMC9663587:

compound: C=CC(=O)Nc1ccc(C(=O)Nc2[nH]nc3c2CN(C(=O)N[C@H](CN(C)C)c2ccccc2)C3(C)C)cc1 [YKL-5-124]; assay: increase in dead-cell fraction, 72 h; higher = more death; settings: 0.001 µM;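 note: breast cancer cell lines in 384-well plates, stained with Hoechst plus LIVE/DEAD far red dye and imaged, cells above an LDR intensity threshold counted dead, Hoechst-negative corpses included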

Cell Line	increase in dead-cell fraction
HCC202	0.0491
HCC1143	0.0369
HCC1187	0.0446
HCC1395	0.0251
HCC1419	0.0323

same assay, conditions: 0.003162 µM

Cell Line	increase in dead-cell fraction
HCC202	0.0507
HCC1143	0.0319
HCC1187	0.0713
HCC1395	0.0285
HCC1419	0.0181

same assay, conditions: 0.01 µM

Cell Line	increase in dead-cell fraction
HCC202	0.0643
HCC1143	0.0518
HCC1187	0.133
HCC1395	0.0648
HCC1419	0.0297

same assay, conditions: 0.03162 µM

Cell Line	increase in dead-cell fraction
HCC202	0.0596
HCC1143	0.0428
HCC1187	0.0654
HCC1395	0.0466
HCC1419	0.0399

same assay, conditions: 0.1 µM

Cell Line	increase in dead-cell fraction
HCC202	0.0803
HCC1143	0.0477
HCC1187	0.0694
HCC1395	0.0638
HCC1419	0.0564

same assay, conditions: 0.3162 µM

Cell Line	increase in dead-cell fraction
HCC202	0.0716
HCC1143	0.0836
HCC1187	0.0946
HCC1395	0.0762
HCC1419	0.0505

same assay, conditions: 1 µM

Cell Line	increase in dead-cell fraction
HCC202	0.0671
HCC1143	0.0896
HCC1187	0.164
HCC1395	0.0835
HCC1419	0.0568

same assay, conditions: 3.162 µM

Cell Line	increase in dead-cell fraction
HCC202	0.081
HCC1143	0.0668
HCC1187	0.17
HCC1395	0.0876
HCC1419	0.0662

same assay, conditions: 10 µM

Cell Line	increase in dead-cell fraction
HCC202	0.213
HCC1143	0.121
HCC1187	0.406
HCC1395	0.152
HCC1419	0.187

compound: CC(=O)c1c(C)c2cnc(Nc3ccc(N4CCN(CCOCCOCCOCCNC(=O)COc5cccc6c5C(=O)N(C5CCC(=O)NC5=O)C6=O)CC4)cn3)nc2n(C2CCCC2)c1=O [BSJ-03-123]; assay: as above; settings: 0.001 µM

Cell Line	increase in dead-cell fraction
HCC202	0.0092
HCC1143	0.0033
HCC1187	0.0005
HCC1395	0.0154
HCC1419	0.0036

same assay, conditions: 0.003162 µM

Cell Line	increase in dead-cell fraction
HCC202	0.0099
HCC1143	0.0019
HCC1187	-0.0076
HCC1395	0.0016
HCC1419	0.0018

same assay, conditions: 0.01 µM

Cell Line	increase in dead-cell fraction
HCC202	0.0404
HCC1143	-0.0022
HCC1187	-0.0142
HCC1395	0.0046
HCC1419	0.0094

same assay, conditions: 0.03162 µM

Cell Line	increase in dead-cell fraction
HCC202	0.0154
HCC1143	-0.0018
HCC1187	-0.0171
HCC1395	0.0156
HCC1419	0.0064

same assay, conditions: 0.1 µM

Cell Line	increase in dead-cell fraction
HCC202	0.0009
HCC1143	0.0104
HCC1187	0.013
HCC1395	0.0199
HCC1419	0.0141

same assay, conditions: 0.3162 µM

Cell Line	increase in dead-cell fraction
HCC202	0.0019
HCC1143	0.011
HCC1187	0.0153
HCC1395	0.0113
HCC1419	0.0138

same assay, conditions: 1 µM

Cell Line	increase in dead-cell fraction
HCC202	0.0243
HCC1143	0.0065
HCC1187	0.037
HCC1395	0.0316
HCC1419	0.0115

same assay, conditions: 3.162 µM

Cell Line	increase in dead-cell fraction
HCC202	0.0201
HCC1143	0.0186
HCC1187	0.0469
HCC1395	0.0201
HCC1419	0.0247

same assay, conditions: 10 µM

Cell Line	increase in dead-cell fraction
HCC202	0.126
HCC1143	0.102
HCC1187	0.323
HCC1395	0.13
HCC1419	0.031

compound: CC(=O)c1c(C)c2cnc(Nc3ccc(N4CCNCC4)cn3)nc2n(C2CCCC2)c1=O; assay: as above; settings: 0.0003162 µM

Cell Line	increase in dead-cell fraction
HCC202	0.0137
HCC1143	0.0048
HCC1187	-0.0075
HCC1395	-0.0002
HCC1419	0.0008

same assay, conditions: 0.001 µM

Cell Line	increase in dead-cell fraction
HCC202	-0.0003
HCC1143	0.0021
HCC1187	0.0038
HCC1395	-0.0025
HCC1419	-0.0028

same assay, conditions: 0.003162 µM

Cell Line	increase in dead-cell fraction
HCC202	0.0115
HCC1143	-0.0047
HCC1187	0.0189
HCC1395	-0.0071
HCC1419	-0.0032

same assay, conditions: 0.01 µM

Cell Line	increase in dead-cell fraction
HCC202	0.0189
HCC1143	-0.0052
HCC1187	0.0048
HCC1395	0.0129
HCC1419	-0.0075

same assay, conditions: 0.03162 µM

Cell Line	increase in dead-cell fraction
HCC202	0.0085
HCC1143	-0.0059
HCC1187	-0.0042
HCC1395	0.0232
HCC1419	-0.0019

same assay, conditions: 0.1 µM

Cell Line	increase in dead-cell fraction
HCC202	0.0163
HCC1143	-0.0023
HCC1187	-0.001
HCC1395	0.0283
HCC1419	-0.0096

same assay, conditions: 0.3162 µM

Cell Line	increase in dead-cell fraction
HCC202	0.0112
HCC1143	-0.0052
HCC1187	-0.0035
HCC1395	0.0367
HCC1419	-0.0094

same assay, conditions: 1 µM

Cell Line	increase in dead-cell fraction
HCC202	0.0306
HCC1143	-0.0085
HCC1187	0.0145
HCC1395	0.0326
HCC1419	-0.0106

same assay, conditions: 3.162 µM

Cell Line	increase in dead-cell fraction
HCC202	0.0531
HCC1143	0.0036
HCC1187	0.0042
HCC1395	0.0325
HCC1419	-0.0074

compound: CCN1CCN(Cc2ccc(Nc3ncc(F)c(-c4cc(F)c5nc(C)n(C(C)C)c5c4)n3)nc2)CC1; assay: as above; settings: 0.001 µM

Cell Line	increase in dead-cell fraction
HCC202	0.0017
HCC1143	-0.0049
HCC1187	0.0028
HCC1395	0.0055
HCC1419	-0.0053

same assay, conditions: 0.003162 µM

Cell Line	increase in dead-cell fraction
HCC202	0.0045
HCC1143	-0.0032
HCC1187	0.0037
HCC1395	-0.0031
HCC1419	-0.0087

same assay, conditions: 0.01 µM

Cell Line	increase in dead-cell fraction
HCC202	0.0025
HCC1143	-0.0047
HCC1187	0.0062
HCC1395	0.0123
HCC1419	-0.0058

same assay, conditions: 0.03162 µM

Cell Line	increase in dead-cell fraction
HCC202	0.0166
HCC1143	0.0015
HCC1187	-0.0026
HCC1395	0.0119
HCC1419	-0.0119

same assay, conditions: 0.1 µM

Cell Line	increase in dead-cell fraction
HCC202	0.02
HCC1143	-0.003
HCC1187	0.0042
HCC1395	0.0163
HCC1419	-0.0149

same assay, conditions: 0.3162 µM

Cell Line	increase in dead-cell fraction
HCC202	0.0336
HCC1143	-0.0023
HCC1187	0.0069
HCC1395	0.0184
HCC1419	-0.0181

same assay, conditions: 1 µM

Cell Line	increase in dead-cell fraction
HCC202	0.0207
HCC1143	0.0074
HCC1187	-0.0008
HCC1395	0.0343
HCC1419	-0.006

same assay, conditions: 3.162 µM

Cell Line	increase in dead-cell fraction
HCC202	0.049
HCC1143	0.0254
HCC1187	0.0149
HCC1395	0.0632
HCC1419	-0.0031

same assay, conditions: 10 µM

Cell Line	increase in dead-cell fraction
HCC202	0.0763
HCC1143	0.124
HCC1187	0.0352
HCC1395	0.447
HCC1419	0.0471

compound: CCOc1cc2ncc(C#N)c(Nc3ccc(OCc4ccccn4)c(Cl)c3)c2cc1NC(=O)/C=C/CN(C)C [Neratinib/HKI272]; assay: as above; settings: 0.0003162 µM

Cell Line	increase in dead-cell fraction
HCC202	-0.0093
HCC1143	0.003
HCC1187	-0.0132
HCC1395	0.0064
HCC1419	-0.0014

same assay, conditions: 0.001 µM

Cell Line	increase in dead-cell fraction
HCC202	-0.0087
HCC1143	0.0005
HCC1187	0.0086
HCC1395	-0.004
HCC1419	0.0002

same assay, conditions: 0.003162 µM

Cell Line	increase in dead-cell fraction
HCC202	0.0183
HCC1143	0.006
HCC1187	-0.0045
HCC1395	0.0024
HCC1419	0.0137

same assay, conditions: 0.01 µM

Cell Line	increase in dead-cell fraction
HCC202	0.0049
HCC1143	0.0143
HCC1187	-0.0058
HCC1395	0.0027
HCC1419	0.0803

same assay, conditions: 0.03162 µM

Cell Line	increase in dead-cell fraction
HCC202	0.0466
HCC1143	0.0116
HCC1187	-0.0052
HCC1395	-0.0039
HCC1419	0.168

same assay, conditions: 0.1 µM

Cell Line	increase in dead-cell fraction
HCC202	0.0644
HCC1143	0.0306
HCC1187	-0.002
HCC1395	0.0013
HCC1419	0.238

same assay, conditions: 0.3162 µM

Cell Line	increase in dead-cell fraction
HCC202	0.0996
HCC1143	0.0437
HCC1187	0.0006
HCC1395	0.0091
HCC1419	0.274

same assay, conditions: 1 µM

Cell Line	increase in dead-cell fraction
HCC202	0.103
HCC1143	0.0748
HCC1187	0.0155
HCC1395	0.012
HCC1419	0.366

same assay, conditions: 3.162 µM

Cell Line	increase in dead-cell fraction
HCC202	0.136
HCC1143	0.261
HCC1187	0.0076
HCC1395	0.141
HCC1419	0.493

compound: CCc1cnn2c(NCc3ccc[n+]([O-])c3)cc(N3CCCC[C@H]3CCO)nc12; assay: as above; settings: 0.0001 µM

Cell Line	increase in dead-cell fraction
HCC202	0.0056
HCC1143	-0.0025
HCC1187	0.0033
HCC1395	0.005
HCC1419	-0.001

same assay, conditions: 0.0003162 µM

Cell Line	increase in dead-cell fraction
HCC202	0.0103
HCC1143	-0.0033
HCC1187	0.0035
HCC1395	-0.0006
HCC1419	-0.0047

same assay, conditions: 0.001 µM

Cell Line	increase in dead-cell fraction
HCC202	-0.0029
HCC1143	0.0002
HCC1187	0.0039
HCC1395	-0.004
HCC1419	-0.0035

same assay, conditions: 0.003162 µM

Cell Line	increase in dead-cell fraction
HCC202	-0.0193
HCC1143	-0.0039
HCC1187	0.0055
HCC1395	0.0091
HCC1419	-0.0074

same assay, conditions: 0.01 µM

Cell Line	increase in dead-cell fraction
HCC202	-0.0112
HCC1143	0.006
HCC1187	0.0539
HCC1395	0.0238
HCC1419	-0.001

same assay, conditions: 0.03162 µM

Cell Line	increase in dead-cell fraction
HCC202	0.132
HCC1143	0.248
HCC1187	0.56
HCC1395	0.263
HCC1419	0.0673

same assay, conditions: 0.1 µM

Cell Line	increase in dead-cell fraction
HCC202	0.106
HCC1143	0.258
HCC1187	0.662
HCC1395	0.368
HCC1419	0.324

same assay, conditions: 0.3162 µM

Cell Line	increase in dead-cell fraction
HCC202	0.122
HCC1143	0.254
HCC1187	0.668
HCC1395	0.378
HCC1419	0.371

same assay, conditions: 1 µM

Cell Line	increase in dead-cell fraction
HCC202	0.126
HCC1143	0.239
HCC1187	0.598
HCC1395	0.387
